# Laboratory results: patent US20060252807A1, “Novel ortho-terphenyl inhibitors of p38 kinase and methods of treating inflammatory disorders” (Kalypsys, Inc., priority 2005, published 2006)
# Target: T1, active p38 alpha enzyme (Upstate Biotechnology) (Homo sapiens, UniProt Q16539)
# T1 construct: purchased Upstate Biotechnology
# Test: p38α biochemical assay (ATP turnover, luminescent detection, Cambrex PKlight)
# Details: p38α biochemical assay, Table 1 Biological Activity
# Outline: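 Luminescent ATP-depletion readout measures total ATP turnover by p38α phosphorylating whole MapkapK2 protein. ATP 1.4 uM final; 30C, 2 h. Compounds delivered from DMSO.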
# T1 sequence (Q16539 whole entry): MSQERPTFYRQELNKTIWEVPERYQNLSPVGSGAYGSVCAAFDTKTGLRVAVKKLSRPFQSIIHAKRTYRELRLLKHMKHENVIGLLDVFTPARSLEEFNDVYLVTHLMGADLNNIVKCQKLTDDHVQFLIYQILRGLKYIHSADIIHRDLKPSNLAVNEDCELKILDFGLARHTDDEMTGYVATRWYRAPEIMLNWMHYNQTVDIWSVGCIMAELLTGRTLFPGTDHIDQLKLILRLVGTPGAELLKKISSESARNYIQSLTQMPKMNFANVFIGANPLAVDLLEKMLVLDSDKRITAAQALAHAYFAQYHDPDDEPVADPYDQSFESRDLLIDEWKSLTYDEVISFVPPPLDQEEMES
row,SMILES,IC50 [nM]
1,CCOC(=O)CC(=O)NCc1onc(-c2ccc(F)cc2)c1-c1nc(C(=O)NC(C)C)cs1 [Example 595],> 1000
2,"CC(C)NC(=O)c1csc(-c2c(-c3ccc(F)cc3)noc2C2CCN(C(=O)CO)CC2)n1 [Example 36, 2-{3-(4-Fluoro-phenyl)-5-|1-(2-hydroxy-acetyl)-piperidin-4-yl|-isoxazol-4-yl}-thiazole-4-carboxylic acid isopropylamide]",≤ 1000
3,CC(C)NC(=O)c1csc(-c2c(-c3ccc(F)cc3)noc2CNC(=O)c2cccc(Cl)c2[N+](=O)[O-])n1 [Example 745],> 1000
4,CC(C)NC(=O)c1csc(-c2c(-c3ccc(F)cc3)noc2CNC(=O)C2CCCN2C(=O)OC(C)(C)C)n1 (stereo not shown) [Example 770],> 1000
5,CC(C)NC(=O)c1csc(-c2oc(CNC(=O)c3cccc(C#N)c3)nc2-c2ccc(F)cc2)n1 [Example 130],≤ 1000
6,CC(=O)NCC(=O)NCc1nc(-c2ccc(F)cc2)c(-c2nc(C(=O)NC(C)C)cs2)o1 [Example 110],≤ 1000
7,CC(C)NC(=O)c1csc(-c2oc(CN3CCN(C(=O)/C=C/c4ccccc4C(F)(F)F)CC3)nc2-c2ccc(F)cc2)n1 [Example 533],> 1000
8,CC(C)NC(=O)c1csc(-c2c(-c3ccc(F)cc3)noc2CNC(=O)c2cc3ccccc3o2)n1 [Example 638],> 1000
9,CC(C)NC(=O)c1csc(-c2oc(CN3CCN(C(=O)c4ccccc4)CC3)nc2-c2ccc(F)cc2)n1 [Example 348],> 1000
10,CC(C)NC(=O)c1csc(-c2oc(CNC(=O)c3ccc(C(C)C)cc3)nc2-c2ccc(F)cc2)n1 [Example 171],> 1000
11,CC(C)NC(=O)c1csc(-c2oc(CN3CCN(C(=O)c4c(O)ccc5ccccc45)CC3)nc2-c2ccc(F)cc2)n1 [Example 480],> 1000
12,CC(=O)N1CCN(Cc2nc(-c3ccc(F)cc3)c(-c3nc(C(=O)NC(C)C)cs3)o2)CC1 [Example 335],≤ 1000
13,Cc1cccc(C(=O)N2CCN(Cc3nc(-c4ccc(F)cc4)c(-c4nc(C(=O)NC(C)C)cs4)o3)CC2)c1O [Example 379],≤ 1000
14,CC(=O)NC(Cc1ccc(O)cc1)C(=O)N1CCN(Cc2nc(-c3ccc(F)cc3)c(-c3nc(C(=O)NC(C)C)cs3)o2)CC1 (stereo not shown) [Example 542],> 1000
15,CC(C)NC(=O)c1csc(-c2c(-c3ccc(F)cc3)noc2CNC(=O)Cc2ccc(O)c(F)c2)n1 [Example 666],> 1000
16,"Cc1onc(-c2ccc(F)c(Cl)c2)c1-c1ccn(C(=O)NC(C)C)n1 [Example 23, 3-|3-(3-Chloro-4-fluoro-phenyl)-5-methyl-isoxazol-4-yl|-pyrazole-1-carboxylic acid isopropylamide]",≤ 1000
17,CC(C)NC(=O)c1csc(-c2oc(CNC(=O)c3cc(F)ccc3[N+](=O)[O-])nc2-c2ccc(F)cc2)n1 [Example 236],≤ 1000
18,COc1ccc(C(=O)N2CCN(Cc3nc(-c4ccc(F)cc4)c(-c4nc(C(=O)NC(C)C)cs4)o3)CC2)c(O)c1 [Example 425],≤ 1000
19,CC(C)NC(=O)c1csc(-c2c(-c3ccc(F)cc3)noc2CNC(=O)CC2Cc3ccccc3C2)n1 [Example 678],> 1000
20,CCN(CC)c1ccc(C(=O)N2CCN(Cc3nc(-c4ccc(F)cc4)c(-c4nc(C(=O)NC(C)C)cs4)o3)CC2)cc1 [Example 497],≤ 1000
21,CC(C)NC(=O)c1csc(-c2oc(CNC(=O)c3cc([N+](=O)[O-])ccc3F)nc2-c2ccc(F)cc2)n1 [Example 235],> 1000

# Same assay, conditions: p38α kinase; Table 1 Biological Activity
row,SMILES,IC50 [nM]
1,Cc1nc(-c2ccc(F)cc2)c(-c2nc(C(=O)N3CCN(c4cc(Cl)ccc4C)CC3)cs2)s1 [Example 1935],> 1000
2,CC(C)NC(=O)c1csc(-c2oc(CNCc3ccc(C(C)(C)C)cc3)nc2-c2ccc(F)cc2)n1 [Example 1158],> 1000
3,CCC(C)NCc1nc(-c2ccc(F)cc2)c(-c2nc(C(=O)NC(C)C)cs2)o1 (stereo not shown) [Example 1061],> 1000
4,CC(C)NC(=O)c1csc(-c2c(-c3ccc(F)cc3)n[nH]c2C2CCN(C(=O)c3cccc(Cl)c3Cl)CC2)n1 [Example 965],> 1000
5,"O=C(NC1CCCC1)c1csc(-c2c(-c3ccc(F)cc3)ncn2C2CCNCC2)n1 [Example 2190, 2-|5-(4-Fluoro-phenyl)-3-piperidin-4-yl-3H-imidazol-4-yl|-thiazole-4-carboxylic acid cyclopentylamide]",≤ 1000
6,Cc1ccc(NCc2nc(-c3ccc(F)cc3)c(-c3nc(C(=O)NC(C)C)cs3)o2)nc1 [Example 1311],> 1000
7,Cc1nc(-c2ccc(F)cc2)c(-c2nc(C(=O)NCc3ccc(F)cc3F)cs2)s1 [Example 1789],≤ 1000
8,CC(C)NC(=O)c1csc(-c2c(-c3ccc(F)cc3)noc2CNC(=O)C(C)c2ccc(-c3ccccc3)c(F)c2)n1 (stereo not shown) [Example 799],> 1000
9,Cc1nc(-c2ccc(F)cc2)c(-c2nc(C(=O)NCCc3ccccc3)cs2)s1 [Example 1754],≤ 1000
10,CCOC(=O)C1CCCN(Cc2onc(-c3ccc(F)cc3)c2-c2nc(C(=O)NC(C)C)cs2)C1 (stereo not shown) [Example 1563],> 1000
11,CCOC(=O)CC(=O)N1CCC(c2[nH]nc(-c3ccc(F)cc3)c2-c2nc(C(=O)NC(C)C)cs2)CC1 [Example 834],≤ 1000
12,CC(C)NC(=O)c1csc(-c2oc(CNCCc3ccc(O)cc3)nc2-c2ccc(F)cc2)n1 [Example 1122],≤ 1000
13,CC(C)NC(=O)c1csc(-c2c(-c3ccc(F)cc3)noc2CN2CCN(c3ccc(O)cc3)CC2)n1 [Example 1577],> 1000
14,Cc1nc(-c2ccc(F)cc2)c(-c2nc(C(=O)N3CCN(c4ccccc4)CC3)cs2)s1 [Example 1892],> 1000
15,O=C(NCC1CC1)c1csc(-c2c(-c3ccc(F)cc3)n[nH]c2C2CCNCC2)n1 [Example 2029],≤ 1000
16,CC(C)NC(=O)c1csc(-c2oc(CNc3cc(C(F)(F)F)cc(C(F)(F)F)c3)nc2-c2ccc(F)cc2)n1 [Example 1373],> 1000
17,Cc1nc(-c2ccc(F)cc2)c(-c2nc(C(=O)NCC(=O)c3ccccc3)cs2)s1 [Example 1815],> 1000
18,CC(C)NC(=O)c1csc(-c2oc(CNc3ccccc3C(C)(C)C)nc2-c2ccc(F)cc2)n1 [Example 1348],> 1000
19,CC(C)NC(=O)c1csc(-c2c(-c3ccc(F)cc3)n[nH]c2C2CCCN(C(=O)/C=C/c3ccccc3F)CC2)n1 (stereo not shown) [Example 892],> 1000
20,N#CCCN(Cc1ccccc1)C(=O)c1csc(-c2c(-c3ccc(F)cc3)n[nH]c2C2CCNCC2)n1 [Example 2132],> 1000
21,O=C(NCCc1c[nH]c2ccccc12)c1csc(-c2c(-c3ccc(F)cc3)n[nH]c2C2CCNCC2)n1 [Example 2134],> 1000
22,Cc1nc(-c2ccc(F)cc2)c(-c2nc(C(=O)Nc3ccccc3F)cs2)s1 [Example 1963],> 1000
23,CC(C)NC(=O)c1csc(-c2c(-c3ccc(F)cc3)noc2CNC(=O)C(Cc2ccccn2)NC(=O)OC(C)(C)C)n1 (stereo not shown) [Example 807],> 1000

row,SMILES,IC50 [nM]
1,CCC(CO)NCc1nc(-c2ccc(F)cc2)c(-c2nc(C(=O)NC(C)C)cs2)o1 (stereo not shown) [Example 1074],≤ 1000
2,CC(C)NC(=O)c1csc(-c2oc(CNc3ccc(Cl)c(Cl)c3)nc2-c2ccc(F)cc2)n1 [Example 1357],> 1000
3,COc1ccccc1CNCc1nc(-c2ccc(F)cc2)c(-c2nc(C(=O)NC(C)C)cs2)o1 [Example 1124],> 1000
4,Cc1ccc(SCC(=O)N2CCC(c3[nH]nc(-c4ccc(F)cc4)c3-c3nc(C(=O)NC(C)C)cs3)CC2)cc1 [Example 943],> 1000
5,CC(C)NC(=O)c1csc(-c2oc(CN3CCN(c4ccccc4)CC3)nc2-c2ccc(F)cc2)n1 [Example 1241],> 1000
6,CC(C)NC(=O)c1csc(-c2oc(CNc3ccccc3F)nc2-c2ccc(F)cc2)n1 [Example 1315],> 1000
7,CCN(CC)Cc1onc(-c2ccc(F)cc2)c1-c1nc(C(=O)NC(C)C)cs1 [Example 1513],> 1000
8,CC(C)NC(=O)c1csc(-c2oc(CN3CCCC(C(N)=O)C3)nc2-c2ccc(F)cc2)n1 (stereo not shown) [Example 1222],> 1000
9,CC(C)NC(=O)c1csc(-c2oc(CN3CCC[C@@H]3CO)nc2-c2ccc(F)cc2)n1 [Example 1201],> 1000
10,CC(C)NC(=O)c1csc(-c2c(-c3ccc(F)cc3)n[nH]c2C2CCN(C(=O)c3ccccc3C(F)(F)F)CC2)n1 [Example 963],> 1000
11,CC(C)NC(=O)c1csc(-c2c(-c3ccc(F)cc3)noc2CN(C)CCc2ccccn2)n1 [Example 1553],> 1000
12,CC(C)NC(=O)c1csc(-c2c(-c3ccc(F)cc3)n[nH]c2C2CCN(C(=O)c3ccc(-c4ccc(O)cc4)cc3)CC2)n1 [Example 1005],> 1000
13,CC(C)NC(=O)c1csc(-c2c(-c3ccc(F)cc3)noc2CNCc2ccc(Cl)cc2)n1 [Example 1463],> 1000
14,CC(C)NC(=O)c1csc(-c2c(-c3ccc(F)cc3)noc2CN[C@H](C)c2ccccc2)n1 [Example 1429],> 1000
15,CC(C)NC(=O)c1csc(-c2c(-c3ccc(F)cc3)noc2CN2CCN(c3cccc(Cl)c3)CC2)n1 [Example 1599],> 1000
16,CC(C)CCCC(C)NCc1nc(-c2ccc(F)cc2)c(-c2nc(C(=O)NC(C)C)cs2)o1 (stereo not shown) [Example 1109],> 1000
17,CC(C)NC(=O)c1csc(-c2oc(CN(C)C[C@H](O)c3ccc(O)c(O)c3)nc2-c2ccc(F)cc2)n1 [Example 1256],> 1000
18,O=C(NCCCN1CCOCC1)c1csc(-c2c(-c3ccc(F)cc3)n[nH]c2C2CCNCC2)n1 [Example 2114],> 1000
19,Cc1ccc([C@H](C)NC(=O)c2csc(-c3sc(C)nc3-c3ccc(F)cc3)n2)cc1 [Example 1770],> 1000
20,Cc1nc(-c2ccc(F)cc2)c(-c2nc(C(=O)NCc3ccc(Cl)c(Cl)c3)cs2)s1 [Example 1820],≤ 1000
21,COc1cccc(N2CCN(C(=O)c3csc(-c4sc(C)nc4-c4ccc(F)cc4)n3)CC2)c1 [Example 1922],> 1000
22,CC(C)NC(=O)c1csc(-c2oc(CN(CCO)CCO)nc2-c2ccc(F)cc2)n1 [Example 1205],> 1000
23,CC(C)NC(=O)c1csc(-c2c(-c3ccc(F)cc3)n[nH]c2C2CCN(C(=O)c3cccc([N+](=O)[O-])c3)CC2)n1 [Example 899],> 1000
